How the values were obtained:
sgk1+/+ and sgk1−/− mice [1] = assay: Cardiac fibrosis by microscopy (H&E and Masson's trichrome) after DOCA/high salt; format: in vivo; details: 18 day DOCA/high salt
Experimental: Hearts from untreated or DOCA/high salt treated (18 days) sgk1+/+ and sgk1−/− mice were quickly removed under anesthesia, the weight determined and fixed in 4% paraformaldehyde/0.1 M sodium phosphate buffer (pH 7.2) overnight and embedded in paraffin. Dewaxed 5 μm thick heart muscle sections were stained with H&E and Masson's trichrome (30). Stained paraffin sections were analysed on a Zeiss Axioplan microscope (Zeiss, Jena, Germany). Areas were measured on digitized images using an Axiocam video camera (Zeiss, Jena, Germany) using the manufacture's software (Axiovision, Zeiss, Jena, Germany). Total tissue areas were measured with a 4× objective; fibrotic areas were identified and quantified using a 20× objective. The degree of fibrosis was then calculated as a percentage of total tissue area.

CTGF [2] = assay: Cardiac CTGF expression by Western blotting after DOCA/salt; format: in vivo, mice; details: for CTGF expression in cardiac tissue (Western blot): DOCA/high salt for 18 days
Experimental: Whole hearts from untreated and DOCA/high salt treated (18 days) sgk1+/+ and sgk1−/− mice were removed and immediately frozen in liquid nitrogen, the tissue was then homogenised using a glass homogeniser in lysis buffer containing 50 mM Tris-HCl, pH 7.4, 100 mM NaCl, 1 mM EDTA, 1 mM EGTA, 50 mM sodium fluoride, 5 mM sodium pyrophosphate, 1 mM sodium orthovanadate, 1% Triton X-100, 1% sodium deoxycholate, 1% sodium doecyl sulphate and protease cocktail inhibitor (Roche, Basel, Switzerland), the homogenates were centrifuged at 10,000 rpm, 4° C. for 15 min, the supernatant was removed and used for Western blotting. sgk1+/+ and sgk1−/− mouse lung fibroblasts in 60 mm culture dishes were serum deprived for 18 h prior to the addition of DOCA (10 μM), 24 h later the cells were lysed. Whole cell lysates (50 μg) and heart homogenates (70 μg) were separated by SDS-page (10% Tris-Glycine), transferred to nitrocellulose membranes, blocked for 1 h in blocking buffer (5% fat-free milk in PBS containing 0.1% Tween) and incubated overnight at 4° C. with a goat polyclonal CTGF primary antibody (diluted 1:400 in blocking buffer, Santa Cruz, Heidelberg, Germany). After incubation with a HRP-conjugated anti-goat secondary antibody (Santa Cruz, Heidelberg, Germany) visualization with ECL was performed according to manufacture's instructions (Amersham, Freiburg, Germany). Membranes were also probed with a primary β-tubulin (Santa Cruz, Heidelberg, Germany) antibody as a loading control. Densitometric analysis of CTGF was performed using Scion Image (Scion, Md., USA) and normalized using β-tubulin.

sgk1+/+ and sgk1−/− mice [3] = assay: DOCA/high salt treatment of sgk1+/+ and sgk1−/− mice: blood pressure, plasma electrolytes, salt intake; format: in vivo
Experimental: To explore whether SGK1 may be involved in the signalling of cardiac fibrosis a pellet continuously releasing DOCA (2.4 mg/day) was implanted into both sgk1+/+ and sgk1−/− mice along with 1% NaCl in the drinking water.
Mice deficient in SGK1 (sgk1−/−) were generated as previously described 9. Wild type (sgk1+/+) and SGK1 knockout (sgk1−/−) mice were implanted with a 21 day release 50 mg DOCA pellet (Innovative Research of America, Sarasota, Fla.) in the neck area (28) during anesthesia (intraperitoneal medetomidin 0.5 mg/kg+midazolam 5 mg/kg+fentanyl 0.05 mg/kg which was reversed by subcutaneous atipamezol 2.5 mg/kg+flumazenil 0.5 mg/kg+naloxon 1.2 mg/kg). One day before implantation of DOCA pellets, sgk1−/− and sgk1+/+ mice were weighed and placed individually in metabolic cages (Tecniplast Hohenpeissenberg, Germany) for basal 24 hour urine collection. Mice had free access to a standard mouse diet (Altromin, Heidenau, Germany) and tap water and/or 1% or 2% NaCl. The inner wall of the metabolic cages was siliconized and urine was collected under water-saturated oil. Systolic arterial blood pressure was determined by the tail-cuff method before and on days 1, 2, 4, 6, 10 and 14 of DOCA/1% NaCl treatment 29. On day 18 of DOCA/high salt treatment, 24 hour urine and body weight were again determined, animals anesthetized (intraperitoneal ketamine and xylazine) and 200 μl of blood withdrawn into heparinized capillaries by puncturing the retro-orbital plexus. Plasma and urinary concentrations of Na+ and K+ were measured by flame photometer (ELEX 6361, Eppendorf, Germany), Cl— concentrations by electrometric titration (Chloridometer 6610, Eppendorf, Germany), Ca2+, phosphorus and creatinine were assessed by commercial diagnostic kits (Sigma, Munich, Germany).

CTGF [4] = assay: CTGF expression in primary mouse lung fibroblasts after DOCA stimulation (Western blot); format: cell-based; details: DOCA 10 μM, 24 h; sgk1+/+ and sgk1−/− cells
Experimental: To harvest lung fibroblasts from sgk1+/+ and sgk1−/− mice (8-14 weeks old), whole lungs were removed and transferred to 90 mm cell culture dishes containing 2 ml of DMEM supplemented with 10% fetal calf serum, 100 U/ml Penicillin, […] Streptomycin and 2 mM L-glutamine (Gibco-Invitrogen, Karlsruhe, Germany). The tissue was cut into small pieces and cultured under standard cell culture conditions (37° C., 5% CO2). Cell growth was observed 2-4 days after initial plating. Fibroblasts were identified by positive staining for fibronectin and used in experiments between passages 2-6. Increase of SGK1 mRNA by DOCA treatment and absence of SGK1 in sgk1−/− mice lung fibroblasts was confirmed by realtime PCR (data not shown). […]

sgk1+/+ and sgk1−/− mice [5] = assay: Cardiac gene transcription after DOCA/high salt (microarray analysis, real-time PCR); format: in vivo
Experimental: Total RNA was isolated from hearts obtained from untreated or DOCA/high salt (48 h) treated sgk1+/+ and sgk1−/− mice using the Qiagen RNeasy Fibrous Tissue Midi Kit according to the manufacture's instructions (Qiagen, Hilden, Germany). Using total RNA from hearts of DOCA/high salt or sham-treated sgk1−/− and sgk1+/+ mice, second-strand syntheses were generated using a commercially available kit (Invitrogen Life Technologies, Rockville, Md.) and an oligo d(T)24 T7 primer. cRNA was generated using biotin-labelled CTP and UTP by in vitro transcription using a T7 promoter-coupled double stranded cDNA as template and the T7 RNA transcript labelling kit (ENZO Diagnostics, Farmingdale, N.Y.). The cRNA was fragmented and hybridised to the mouse genome MOE430A oligonucleotide array chip (Affymetrix, Santa Clara, Calif.). The array chips were then stained using phycoerythrin conjugated streptavidin (Molecular Probes, Invitrogen Life Technologies, Rockville, Md.) and the fluorescence intensities were determined using a laser confocal scanner (Agilent, Affymetrix, Santa Clara, Calif.). The intensity of the scanned images was analysed using Microarray Suite Version 5 (Affymetrix, Santa Clara, Calif.). Global scaling was applied to all arrays such that the mean intensity of each array was equivalent. In global scaling, the raw signal value of each probe cell was multiplied by a scaling factor.

## CC(=O)OCC(=O)[C@H]1CC[C@H]2[C@@H]3CCC4=CC(=O)CC[C@]4(C)[C@H]3CC[C@]12C [DOCA]
sgk1+/+ and sgk1−/− mice [1]; sgk1+/+ mice
  fibrosis of the heart: marked fibrosis of the heart
sgk1+/+ and sgk1−/− mice [1]; sgk1−/− mice
  fibrosis of the heart: without any appreciable effect on the heart
CTGF [2]; sgk1+/+ mice, DOCA/1% salt (untreated: 0.9±0.2), P<0.01
  cardiac CTGF expression, CTGF/β-tubulin densitometric analysis: 4.7±1.0 arbitrary units
CTGF [2]; sgk1+/+ mice
  CTGF expression in cardiac tissue (Western blot): markedly upregulated CTGF expression
CTGF [2]; sgk1−/− mice, DOCA/high salt (untreated: 1.5±1.0)
  cardiac CTGF expression, CTGF/β-tubulin densitometric analysis: 1.7±0.7 arbitrary units
CTGF [2]; sgk1−/− mice
  CTGF expression in cardiac tissue (Western blot): unaltered
sgk1+/+ and sgk1−/− mice [3]; DOCA/high salt for 18 days, sgk1+/+ vs sgk1−/− mice
  hypokalemia: significant hypokalemia in sgk1+/+ but not in sgk1−/− mice
sgk1+/+ and sgk1−/− mice [3]; sgk1+/+ mice, after implanting the DOCA pellet
  salt intake from bottle 2 (1% NaCl): pronounced increase in salt intake
sgk1+/+ and sgk1−/− mice [3]; sgk1−/− and sgk1+/+ mice, DOCA/high salt for 18 days
  blood pressure: statistically significant increases in blood pressure
CTGF [4]
  CTGF levels in primary mouse lung fibroblasts: elevated CTGF levels only in the sgk1+/+ cells
sgk1+/+ and sgk1−/− mice [5]; heart, sgk1+/+ mice, 48 h DOCA/high salt vs untreated sgk1+/+ mice, real-time PCR
  fold increase in SGK1/GAPDH copy number (SGK1 transcription): 2.10±0.14 fold
sgk1+/+ and sgk1−/− mice [5]; sgk1+/+ mice, 48 h DOCA/high salt
  induction of fibrosis genes (procollagens, integrin α5, proteoglycan 4, CTGF), microarray: induced several genes involved in the pathogenesis of fibrosis
sgk1+/+ and sgk1−/− mice [5]; sgk1−/− mice, DOCA/high salt
  induction of fibrosis genes (procollagens, integrin α5, proteoglycan 4, CTGF), microarray: none of these genes were induced

— patent publication US20070203085A1, “Methods For Interfering With Fibrosis” (priority 2004, published 2007)
